Measured values taken from publication PMC5464344, “Analgesic and anti‐inflammatory properties of novel, selective, and potent EP4 receptor antagonists” (Pharmacology Research & Perspectives, 2017).

Legend:
[1] = molecular target: T1, TP (TXA2/PGH2) (h); antagonist effect (Homo sapiens, UniProt P21731); assay: Off-target activity (CEREP), TP antagonist effect; assay type: biochemical; conditions: 10 μmol/L; obtained at CEREP (Blanco et al. 2016c)
T1 construct: CEREP (contract laboratory that ran the assay)
T1 sequence (P21731 1-343): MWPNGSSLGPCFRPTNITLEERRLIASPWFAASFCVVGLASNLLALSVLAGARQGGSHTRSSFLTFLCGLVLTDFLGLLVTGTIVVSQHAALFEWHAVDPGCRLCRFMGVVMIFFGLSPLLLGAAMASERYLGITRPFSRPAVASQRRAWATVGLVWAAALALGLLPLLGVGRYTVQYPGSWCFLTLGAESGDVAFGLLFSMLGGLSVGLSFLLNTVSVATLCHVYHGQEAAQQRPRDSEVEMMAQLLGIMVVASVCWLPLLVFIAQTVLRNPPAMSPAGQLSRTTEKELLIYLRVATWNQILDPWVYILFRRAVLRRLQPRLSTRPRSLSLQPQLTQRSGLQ
Text: (§1) The off‐target activity related to prostaglandin pathway (Table 2) were obtained at CEREP (Blanco et al. 2016c).

COX2 (h) = molecular target: T2, COX2 (h) (Homo sapiens, UniProt P35354); assay: Off-target activity (CEREP), COX2; assay type: biochemical; conditions: 10 μmol/L; obtained at CEREP (Blanco et al. 2016c); read-out: % Inh COX2 (h)
T2 construct: CEREP (contract laboratory that ran the assay)
T2 sequence (P35354 18-604): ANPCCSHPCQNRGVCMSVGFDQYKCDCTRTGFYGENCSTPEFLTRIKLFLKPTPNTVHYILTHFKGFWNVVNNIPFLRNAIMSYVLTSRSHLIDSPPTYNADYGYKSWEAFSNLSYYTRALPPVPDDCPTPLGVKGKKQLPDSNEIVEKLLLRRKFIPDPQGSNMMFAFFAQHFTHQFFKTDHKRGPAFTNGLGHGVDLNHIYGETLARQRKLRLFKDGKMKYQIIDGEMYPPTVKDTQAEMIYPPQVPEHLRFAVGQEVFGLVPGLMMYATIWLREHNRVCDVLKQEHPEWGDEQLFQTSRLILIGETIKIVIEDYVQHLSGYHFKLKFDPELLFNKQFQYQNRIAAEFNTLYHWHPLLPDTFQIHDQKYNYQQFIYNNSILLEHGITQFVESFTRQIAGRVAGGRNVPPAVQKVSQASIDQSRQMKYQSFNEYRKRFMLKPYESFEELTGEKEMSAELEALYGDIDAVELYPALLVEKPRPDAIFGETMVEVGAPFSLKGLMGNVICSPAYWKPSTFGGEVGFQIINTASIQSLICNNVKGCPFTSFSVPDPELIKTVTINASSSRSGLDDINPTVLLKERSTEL
Text: as §1

[2] = molecular target: T3, TP (TXA2/PGH2) (h); agonist effect (Homo sapiens, UniProt P21731); assay: Off-target activity (CEREP), TP agonist effect; assay type: biochemical; conditions: 10 μmol/L; obtained at CEREP (Blanco et al. 2016c)
T3 construct: CEREP (contract laboratory that ran the assay)
T3 sequence (P21731 1-343): T1 sequence (P21731 1-343)
Text: as §1

[3] = test system: male Lewis rats, adjuvant induced arthritis; set-up: method as in Blanco et al. 2016b; conditions: results published previously, ref Blanco et al. 2016b; cited from earlier work
[4] = molecular target: T4, DP1(h); agonist radioligand (Homo sapiens, UniProt Q13258); assay: Off-target activity (CEREP), DP1; assay type: binding; conditions: 10 μmol/L; obtained at CEREP (Blanco et al. 2016c)
T4 construct: CEREP (contract laboratory that ran the assay)
T4 sequence (Q13258 1-359): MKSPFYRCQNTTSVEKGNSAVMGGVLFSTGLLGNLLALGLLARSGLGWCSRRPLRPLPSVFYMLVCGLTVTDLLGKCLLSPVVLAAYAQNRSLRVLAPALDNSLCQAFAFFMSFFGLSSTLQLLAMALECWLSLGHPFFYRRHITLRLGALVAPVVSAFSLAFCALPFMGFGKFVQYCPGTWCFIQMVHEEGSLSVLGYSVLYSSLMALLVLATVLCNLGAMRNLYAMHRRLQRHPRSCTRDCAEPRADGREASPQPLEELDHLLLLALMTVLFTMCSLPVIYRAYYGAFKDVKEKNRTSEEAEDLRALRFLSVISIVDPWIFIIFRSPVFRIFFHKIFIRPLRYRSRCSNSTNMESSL
Text: as §1

[5] = molecular target: T5, FP(h); agonist radioligand (Homo sapiens, UniProt P43088); assay: Off-target activity (CEREP), FP; assay type: binding; conditions: 10 μmol/L; obtained at CEREP (Blanco et al. 2016c)
T5 construct: CEREP (contract laboratory that ran the assay)
T5 sequence (P43088 whole entry): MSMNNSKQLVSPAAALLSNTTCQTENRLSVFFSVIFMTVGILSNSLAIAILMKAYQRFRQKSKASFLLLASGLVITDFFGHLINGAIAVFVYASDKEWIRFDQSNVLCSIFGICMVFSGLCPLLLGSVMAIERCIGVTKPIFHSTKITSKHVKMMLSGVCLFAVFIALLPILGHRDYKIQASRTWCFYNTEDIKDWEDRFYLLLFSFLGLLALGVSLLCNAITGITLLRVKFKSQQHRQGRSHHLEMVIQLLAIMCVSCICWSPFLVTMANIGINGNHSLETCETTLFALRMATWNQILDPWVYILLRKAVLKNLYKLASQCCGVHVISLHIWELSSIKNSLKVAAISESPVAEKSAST
Text: as §1

[6] = test system: male Lewis rats, adjuvant induced arthritis; assay: AIA model of inflammation (paw swelling); assay type: in vivo; conditions: rat AIA; all 3 doses tested (1, 3, and 10 mg/kg) oral once daily 4 days; P < 0.05 by Dunnett's test
Method: For the monoiodoacetate (MIA) and adjuvant induced arthritis (AIA) studies, male Lewis rats (Envigo, Indianapolis, IN) of approximately 8 weeks of age at the time of disease induction were used. For collagen induced arthritis studies (CIA) female Lewis rats (Charles River) weighing 150–170 g were used. Rats were housed in groups of 2 or 3 per cage and maintained in a constant temperature, and on a 12 h light/12 h dark cycle. Animals had free access to food and water at all times except during data collection.
On Day 0, paw widths of both right and left paws were measured between the lateral and dorsal surfaces using calipers, and a mean paw thickness for each rat was calculated by averaging these measurements. Rats were then inoculated intradermally with 0.25 mg of adjuvant (M. Tuberculosis H37 RA from Difco) in 100 μL of mineral oil at the base of the tail to induce adjuvant disease. Eleven days post inoculation paw widths of both right and left paws were measured again, and the percent change from the Day 0 reading was calculated. […] On the fifth day after dosing started (day 15 post adjuvant injection) the rats were euthanized without further dosing and paw width measured again. The percent increase in mean paw thickness from day 11 to day 15 was then calculated as a measure of paw swelling which is indicative of the amount of inflammation in the paws measured. […]

COXl (h) = molecular target: T6, COXl (h) (Homo sapiens, UniProt P23219); assay: Off-target activity (CEREP), COX1; assay type: biochemical; conditions: 10 μmol/L; obtained at CEREP (Blanco et al. 2016c); Compound 1 value footnoted: non-specific assay interference
T6 construct: CEREP (contract laboratory that ran the assay)
T6 sequence (P23219 24-599): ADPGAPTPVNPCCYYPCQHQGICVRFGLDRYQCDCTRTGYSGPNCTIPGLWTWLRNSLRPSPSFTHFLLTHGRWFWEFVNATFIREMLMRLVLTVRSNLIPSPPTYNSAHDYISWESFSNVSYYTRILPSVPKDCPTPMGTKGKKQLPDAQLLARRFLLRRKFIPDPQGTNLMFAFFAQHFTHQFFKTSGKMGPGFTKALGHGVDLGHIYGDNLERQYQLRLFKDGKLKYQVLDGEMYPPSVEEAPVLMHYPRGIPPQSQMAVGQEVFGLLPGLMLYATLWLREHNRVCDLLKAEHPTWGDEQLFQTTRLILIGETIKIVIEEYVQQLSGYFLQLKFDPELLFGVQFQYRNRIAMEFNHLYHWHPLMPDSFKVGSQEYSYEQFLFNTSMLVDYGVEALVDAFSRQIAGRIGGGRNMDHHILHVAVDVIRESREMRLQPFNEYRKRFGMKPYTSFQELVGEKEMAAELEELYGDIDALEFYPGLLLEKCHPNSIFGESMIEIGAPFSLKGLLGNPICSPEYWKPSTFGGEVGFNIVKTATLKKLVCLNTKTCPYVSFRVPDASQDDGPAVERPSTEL
Text: as §1

Row | Structure (SMILES) | % Inh TP (TXA2/PGH2) (h); antagonist effect [1] | inhibition at 10 µM (COX2 (h)) | % Inh TP (TXA2/PGH2) (h); agonist effect [2] | efficacy in rat AIA model of inflammation [3] | % Inh DP1(h); agonist radioligand [4] | % Inh FP(h); agonist radioligand [5] | increases in paw inflammation (swelling) compared to vehicle [6] | inhibition at 10 µM (COXl (h))
1 | Cc1ccc(N2CCC(O)CC2)nc1C(=O)Nc1c(C)cc(C(=O)O)cc1C [Compound 1] | −12.00% | -10% | −4.00% | effective | 0.00% | −2.00% |  | 
2 | C[C@H](NC(=O)[C@H]1CCCCN1CCOc1ccccc1)c1ccc(C(=O)O)cc1 [Compound 2] | −12.00% | -17% | −2.00% |  | −4.00% | −9.00% | significantly inhibited | -24%
